Measurements as given in ChEMBL document CHEMBL6109124, “Identification of effective anti-osteosarcoma agents via screening of an in-house NQO1-targeted compound library” (Bioorg Med Chem, 2025).
The source made the active and inactive calls. The rule behind the calls is not given here.

Assays:
HOS-TE85 [1] = test: Induction of apoptosis in human MNNG cells assessed as viable cells at 1 uM measured after 48 hrs by Alexa Fluor 488 Annexin V/propidium iodide staining based flow cytometry (reference value: 98.8%); format: functional; conditions: read-out: Activity
[2] = Toxicity in human MNNG cell xenografted Balb/c mouse assessed as effect on liver at 15 to 45 mg/kg, iv administered every 2 days for 3 weeks and measured post last dose by H and E staining based microscopy; format: organism-based; conditions: in vivo, 504 h, dose 15-45 mg/kg, time 21 day
HOS-TE85 [3] = test: Cell cycle arrest in human MNNG cells assessed as accumulation of cells at S phase at 1 uM measured after 24 hrs by propidium iodide staining based flow cytometry (reference value: 39.4%); format: functional
[4] = Toxicity in human MNNG cell xenografted Balb/c mouse assessed as body weight loss at 15 to 45 mg/kg, iv administered every 2 days for 3 weeks and measured every other day during compound dosing; format: organism-based; conditions: in vivo, 504 h, dose 15-45 mg/kg, time 21 day
HOS-TE85 [5] = test: Induction of apoptosis in human MNNG cells assessed as early apoptotic cells at 10 uM measured after 48 hrs by Alexa Fluor 488 Annexin V/propidium iodide staining based flow cytometry (reference value: 0.69%); format: functional
HOS-TE85 [6] = test: Antitumor activity against human MNNG cells xenografted in Balb/c mouse assessed as reduction in number of live cells in tumor at 15 to 45 mg/kg, iv administered every 2 days for 3 weeks and measured post last dose by H and E staining based microscopy; format: functional, organism-based; conditions: dose 15-45 mg/kg, time 21.0 day
[7] = Toxicity in human MNNG cell xenografted Balb/c mouse assessed as mortality at 15 to 45 mg/kg, iv administered every 2 days for 3 weeks and measured every other day during compound dosing; format: organism-based; conditions: in vivo, 504 h, dose 15-45 mg/kg, time 21 day
HOS-TE85 [8] = test: Induction of apoptosis in human MNNG cells assessed as early apoptotic cells at 1 uM measured after 48 hrs by Alexa Fluor 488 Annexin V/propidium iodide staining based flow cytometry (reference value: 0.69%); format: functional
HOS-TE85 [9] = test: Induction of reactive oxygen species generation in human MNNG cells at 5 to 10 uM measured after 3 hrs in presence of dicoumarol by DCFH-DA probe based fluorescence assay; format: functional, cell-based; conditions: dose 5-10 µM
HOS-TE85 [10] = test: Cell cycle arrest in human MNNG cells assessed as accumulation of cells at G2/M phase at 10 uM measured after 24 hrs by propidium iodide staining based flow cytometry (reference value: 39.4%); format: functional
HOS-TE85 [11] = test: Induction of apoptosis in human MNNG cells assessed as late apoptotic cells at 10 uM measured after 48 hrs by Alexa Fluor 488 Annexin V/propidium iodide staining based flow cytometry (reference value: 0.51%); format: functional
HOS-TE85 [12] = test: Cell cycle arrest in human MNNG cells assessed as accumulation of cells at G0/G1 phase at 2.5 uM measured after 24 hrs by propidium iodide staining based flow cytometry (reference value: 51.4%); format: functional
HOS-TE85 [13] = test: Induction of apoptosis in human MNNG cells assessed as late apoptotic cells at 1 uM measured after 48 hrs by Alexa Fluor 488 Annexin V/propidium iodide staining based flow cytometry (reference value: 0.51%); format: functional
HOS-TE85 [14] = test: Induction of apoptosis in human MNNG cells assessed as early apoptotic cells at 5 uM measured after 48 hrs by Alexa Fluor 488 Annexin V/propidium iodide staining based flow cytometry (reference value: 0.69%); format: functional
[15] = Toxicity in human MNNG cell xenografted Balb/c mouse assessed as reduction in Cr level at 15 to 45 mg/kg, iv administered every 2 days for 3 weeks and measured post last dose; format: organism-based; conditions: in vivo, 504 h, dose 15-45 mg/kg, time 21 day
HOS-TE85 [16] = test: Induction of apoptosis in human MNNG cells assessed as early apoptotic cells at 2.5 uM measured after 48 hrs by Alexa Fluor 488 Annexin V/propidium iodide staining based flow cytometry (reference value: 0.69%); format: functional
[17] = Cytotoxicity against HUVEC assessed as cell growth inhibition measured after 72 hrs by MTT assay; format: toxicity, cell-based; conditions: human, HUVEC cells
HOS-TE85 [18] = test: Induction of apoptosis in human MNNG cells assessed as necrotic cells at 5 uM measured after 48 hrs by Alexa Fluor 488 Annexin V/propidium iodide staining based flow cytometry (reference value: 0.04%); format: functional
[19] = Toxicity in human MNNG cell xenografted Balb/c mouse assessed as effect on kidney at 15 to 45 mg/kg, iv administered every 2 days for 3 weeks and measured post last dose by H and E staining based microscopy; format: organism-based; conditions: in vivo, 504 h, dose 15-45 mg/kg, time 21 day
HOS-TE85 [20] = test: Induction of apoptosis in human MNNG cells assessed as viable cells at 5 uM measured after 48 hrs by Alexa Fluor 488 Annexin V/propidium iodide staining based flow cytometry (reference value: 98.8%); format: functional; conditions: read-out: Activity
HOS-TE85 [21] = test: Cell cycle arrest in human MNNG cells assessed as accumulation of cells at S phase at 2.5 uM measured after 24 hrs by propidium iodide staining based flow cytometry (reference value: 39.4%); format: functional
HOS-TE85 [22] = test: Induction of apoptosis in human MNNG cells assessed as late apoptotic cells at 5 uM measured after 48 hrs by Alexa Fluor 488 Annexin V/propidium iodide staining based flow cytometry (reference value: 0.51%); format: functional
HOS-TE85 [23] = test: Antitumor activity against iv dosed human MNNG cells xenografted in Balb/c mouse assessed as increase in apoptotic cells administered every 2 days for 3 weeks and measured post last dose by TUNEL staining based assay; format: functional, organism-based; conditions: dose 15-45 mg/kg, time 21.0 day
HOS-TE85 [24] = test: Cell cycle arrest in human MNNG cells assessed as accumulation of cells at S phase at 10 uM measured after 24 hrs by propidium iodide staining based flow cytometry (reference value: 39.4%); format: functional
HOS-TE85 [25] = test: Cell cycle arrest in human MNNG cells assessed as accumulation of cells at G0/G1 phase at 10 uM measured after 24 hrs by propidium iodide staining based flow cytometry (reference value: 51.4%); format: functional

Cc1cc2c(cc1C)-c1oc(CN3CCOCC3)c(C)c1C(=O)C2=O
viability at 1 µM (HOS-TE85 [1]): 89.3% | Activity [2]: Non-toxic | Activity (HOS-TE85 [3]): 41.1% | Activity [4]: Non-toxic | Activity (HOS-TE85 [5]): 23.1% | Activity (HOS-TE85 [6]): Active | Activity [7]: Non-toxic | Activity (HOS-TE85 [8]): 3.34% | Activity (HOS-TE85 [9]): inactive | Activity (HOS-TE85 [10]): 10.2% | Activity (HOS-TE85 [11]): 17.7% | Activity (HOS-TE85 [12]): 53% | Activity (HOS-TE85 [13]): 6.97% | Activity (HOS-TE85 [14]): 18.1% | Activity [15]: Toxic | Activity (HOS-TE85 [16]): 10.6% | IC50 at 72 h [17]: 19 µM | Activity (HOS-TE85 [18]): 0.08% | Activity [19]: Non-toxic | viability at 5 µM (HOS-TE85 [20]): 69% | Activity (HOS-TE85 [21]): 37.8% | Activity (HOS-TE85 [22]): 12.8% | Activity (HOS-TE85 [23]): Dose-dependent-effect | Activity (HOS-TE85 [24]): 26.1% | Activity (HOS-TE85 [25]): 63.7%
